According to US7091185B2, “Periodic antimicrobial peptides” (Dow Global Technologies Inc., priority 2003, dated 2006):
Read-outs that look alike come from different tables or passages of the source. Where no end group is shown, it is not given here.

Legend:
[1] = tested on: P. aeruginosa ATCC 15442; assay: HMARQ biocidal kill activity; type: cell-based; conditions: P. aeruginosa ATCC 15442 (gram−)
In short: (§1)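 Values are biocide ppm (μg/mL) needed for 3.5 log reduction relative to untreated controls after 15 min or 24 h exposure. Organisms were added to biocide-containing sample matrix (200–300 μL, mixed by vortex), then enumerated by most-probable-number 1:10 dilution series in TSB/resazurin.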

[2] = tested on: Staph. aureus ATCC 6538; assay: HMARQ biocidal kill activity; type: cell-based; conditions: Staph. aureus ATCC 6538 (gram+)
In short: as §1

[3] = Red blood cell toxicity; type: cell-based; conditions: red blood cells (RBC)
[4] = tested on: Red blood cells (RBC); assay: Red blood cell toxicity; type: cell-based
[5] = tested on: S. aureus (methicillin resistant) ATCC 33591; conditions: ATCC 33591
[6] = tested on: E. coli ATCC 2592; conditions: ATCC 2592
[7] = tested on: P. aeruginosa ATCC 10145; conditions: ATCC 10145
[8] = tested on: HeLa cell line; assay: HeLa MTS cellular reduction toxicity assay; type: cell-based; conditions: for TX50: 24 h, MTS
In short: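 TX50, the concentration giving 50% toxicity, obtained by sigmoidal fitting of relative toxicity versus peptide-free cells. Readout: MTS reduction with PMS, 1 h, A490. Peptides applied in 2-fold serial dilutions to 48 h HeLa monolayers for 24 h at 37 °C.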

[9] = tested on: C. albicans 10231; type: cell-based; conditions: 10231
In short: (§2)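 Broth microdilution per NCCLS, adapted for fungi with Sabouraud Dextrose Broth; KFAK-repeat peptide multimers in two-fold dilutions from 1,000 to 1 μg/ml. Growth by OD620 after overnight incubation; IC50 by sigmoidal fit, in duplicate, repeated at least twice.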

[10] = tested on: Cr. Neoformans 32045; type: cell-based
In short: as §2

[11] = RBCs, concentration required for 50% toxicity, read-out: TX50

| Substance | ppm needed for 3.5 log kill at 15 min [1] [ppm] | ppm needed for 3.5 log kill at 24 hr [1] [ppm] | ppm needed for 3.5 log kill at 15 min [2] | ppm needed for 3.5 log kill at 24 hr [2] [ppm] | HC50 at 24 h [3, 11] [µg/mL] | % kill at 250 μg/ml [4] [%] | IC50 [5] [µg/mL] | MIC [5] [µg/mL] | IC50 [6] [µg/mL] | MIC [6] [µg/mL] | IC50 [7] [µg/mL] | MIC [7] [µg/mL] | % kill at 500 μg/ml [8] [%] | TX50 [8] [µg/mL] | IC50 [9] [µg/mL] | MIC [9] [µg/mL] | IC50 [10] [µg/mL] | MIC [10] [µg/mL] | HC50 at 24 h [3] [µg/mL] |
| --- | --- | --- | --- | --- | --- | --- | --- | --- | --- | --- | --- | --- | --- | --- | --- | --- | --- | --- | --- |
| KFKKFKKFKKFKKFKKFKKFKKFKKFK [KFK (9), KFK KFK KFK KFK KFK KFK KFK KFK KFK] | >500 | 63 | >500 ppm | 500 | > 500 | −6 | 92 | 125 to 250 | 14 | 16 to 32 | 68 | 125 | 80.7 | >500 | 194 | 250 to 500 | 39 | 62 to 125 |  |
| H-LKKLLKKLLKKLLKKLLKKL-OH [LKKL (5), LKKL LKKL LKKL LKKL LKKL] | >500 | 8 | >500 ppm | 125 | 9 | 100 | 69 | >250 | 49 | 62 to 125 | 27 | 62 | −0.7 | 31 | 211 | >500 | 55 | 62 to 125 |  |
| KAAKKAAKKAAKKAAKKAAKKAAKKAAK [KAAK (7), KAAK KAAK KAAK KAAK KAAK KAAK KAAK] | >500 | 125 | >500 ppm | 250 | > 500 | −6 | >500 | >500 | 261 |  | >250 | >250 | 90.0 | >500 | 262 | >500 | 41 | 62 to 125 |  |
| H-KFKKFKKFKKFKKFKKFKKFKKFK-OH [KFK (8), KEK KFK KFK KFK KFK KFK KFK KFK] | >500 | >125 | >500 ppm | 500 | > 500 | −6 | 72 | >250 | 20 | 32 to 62 | 145 | 250 | 84.2 | >500 | 113 | 125 to 250 | 25 | 40 to 62 |  |
| LKKLLKKLLKKLLKKLLKKLLKKL [LKKL (6), LKKL LKKL LKKL LKKL LKKL LKKL] | >500 | 8 | 4 ppm | 125 | 11 | 100 | 98 | >250 | 31 | 62 to 125 | 58 | 65 | −1.3 | 26 | 213 | 250 to 500 | 93 | >125 |  |
| H-LKKLLKKLLKKLLKKLLKKLLKKLLKKL-OH [LKKL (7), LKKL LKKL LKKL LKKL LKKL LKKL LKKL] | 125 | 8 | 4 ppm | 125 | 9 | 100 | 252 | >250 | 41 | 62 to 125 | 96 | 125 | −0.4 | 25 | 199 | 250 to 500 | 85 | 100 to 125 |  |
| H-RFARRFARRFARRFARRFARRFAR-OH [RFAR (6), RFAR RFAR RFAR RFAR RFAR RFAR] | 31 | 31 | >500 ppm | 8 | 176 | 72 | 15 | 31 to 62 | 12 | 31 to 62 | 25 | 32 | 22.1 | 159 | 114 | 125 to 250 | 35 | 62 to 125 |  |
| LRLRLRLRLRLRLRLRLRLRLR [LR (11), LR LR LR LR LR LR LR LR LR LR LR] |  | 8 | 16 ppm | 8 | 450 | 41 | 39 | 125 to 250 | 96 | 125 to 250 | >250 | >250 | 66.6 | >500 | >500 | >500 | 3.3 | 62 to 125 |  |
| H-KKFAKKFAKKFAKKFAKKFAKKFA-OH [KKFA (6), KKFA KKFA KKFA KKFA KKFA KKFA] | >500 | 8 | >500 ppm | 63 |  | 2 | 136 | >250 | 7 | 16 to 32 | 33 | 62 | 76.4 | >500 | 107 | 125 to 250 | 12 | 32 to 62 | > 500 |
| H-LKLKLKLKLKLKLKLKLKLKLK-OH [LK (11), LK LK LK LK LK LK LK LK LK LK LK] | 16 | 8 | 16 or less ppm | 4 | > 500 | 24 | 111 | >250 | 50 | >125 | 51 | 62 | 43.8 | 202 | 185 | 250 to 500 | 26 | 32 to 62 |  |
